Laboratory results published in US20250340616A1, “NOVEL PEPTIDE MIMICS AND THEIR USE” (STIFTELSEN VECTIS, priority 2021, published 2025).
Where no end group is shown, it is not given here. [ ]: non-standard residue; d: D form. Cit = NC(=O)NCCC[C@H](N)C(=O)O

Tested on: TCR specific for the citrullinated fibrinogen peptide
Assay: activation of 58−/− T cell line expressing cit-fib specific TCR by peptide-loaded HLA-DRB1*04:01 monomers (NFAT-GFP reporter, PD1 expression)
Assay type: cell-based, human
Details: peptide presented on HLA-DRB1*04:01, 48 h; for TCR-dependent NFAT mediated activation of T cells: GFP reporter, FIG. 3; for TCR-dependent PD1 expression: anti-mouse PD-1 staining, FIG. 4
Method: 58−/− cell line expressing cit-fib specific TCRs in ametrine expressing vector, along with co-expression of human CD4 and GFP as a reporter for NFAT expression.
HLA-DRB1*04:01 monomeric protein (500 μg/mL) was incubated for 72 h at 37° C. with different versions of fib69-81 peptide (test) and VimX71 peptide (control) in sodium phosphate buffer (1×) containing n-octyl β-D-Glucopyranoside (Sigma-Aldrich, USA) and Pefabloc SC (Sigma-Aldrich, USA), and then stored at 4° C. until used. Loaded HLA monomers were subsequently coated (0.03-2 μg/well) onto 48-well plates in 100 μl PBS for 4 h at 37° C. The HLA/peptide solution was subsequently flicked of the plate and specific T cells (5×104) and anti-CD28 (1 μg/well) were added to the monomer-coated wells and incubated for 48 h at 37° C. before collecting cells.
As positive controls, anti-mouse anti-CD3 (BioLegend #100314), anti-CD28 (BioLegend #101112) were used.
PD1 expression on 58−/− cells was assessed using anti-mouse PD-1 PE-Cy7 antibody, while NFAT activation was studied using assessment of GFP expression following cell stimulation. Human CD4+ametrine+ viable singlets were used as population to look for expression of NFAT and PD1.

Sequence | TCR-dependent NFAT mediated activation of T cells | TCR-dependent PD1 expression
GGFRAQPAKAAAT [FibF71Q74, fibrinogen 69-81 mimic, glutamine in position 74 and phenylalanine in position 71] | equally capable of triggering T cell activation as the original citrullinated peptide | equally capable of triggering T cell activation as the original citrullinated peptide
GGFRAXPAKAAAT (GGFRA[Cit]PAKAAAT; ends and bridges not checked) [FibF71X74] | equally capable of triggering T cell activation as the original citrullinated peptide | equally capable of triggering T cell activation as the original citrullinated peptide
GGYRAQPAKAAAT [FibQ74, fibrinogen 69-81 mimic, a glutamine in position 74] | equally capable of triggering T cell activation as the original citrullinated peptide | equally capable of triggering T cell activation as the original citrullinated peptide
